Assay results reported in patent US20030220363A1, “Use of propionyl L-carnitine for the preparation of a medicament capable of inducing apoptosis” (SIGMA-TAU INDUSTRIE FARMACEUTICHE RIUNITE S.p.A., priority 1998, published 2003).
Marks after values point to notes of the source that are not given here.

Columns and labels:
rat aorta intima = test: Morphometric analysis of intima thickening after mechanical de-endothelialization; type: in vivo, Wistar rat; conditions: 15 days after de-endothelialization, PLC 120 mg/Kg or Enalapril 1 mg/Kg p.c. die; for Intima volume/wall (percentage ratio between intima volume and aorta wall volume): ± s.e.m., preliminary results
Procedure: (§1) Wistar male rats, weighing between […], were used for the experiments. The rats were anaesthetised with Nembutal i.p. (35 mg/kg body weight) and the thoracic portion of aorta was submitted to endothelium mechanical removal with Fogarty 2F balloon probe (Baxter USA), according to the Baugartner and Studer method(1966) with minor modification (Orlandi 1994).
(§2) Two groups were subjected to pharmacological treatment with propionyl L-carnitine (PLC, 120 mg/Kg p.c. die), one group was treated with an ACE-inhibitor (Enalapril, 1 mg/Kg p.c. die); the two remaining groups were the control. Moreover, some non-balloonized animals were used as blanks.
The entity of intima thickening after 15 days was evaluated on Verhoeff-Van Gieson stained sections, using a grid overlapped on the image, consisting of 400 points, 1 cm from each other.
The analysis was made on hystological preparates through a Hamamatsu C3077 camera controlled by a Hamamatsu DVS 3000 image analyser and connected to a Polyvar-Reichert microscope. Morphometric evaluation was made at X116 magnification. The following parameters were evaluated a) relative volume of intima referred to arterial wall; b) relative volume of tunica media referred to arterial wall, by counting the overlapping points on the intima and mean tunica.
3-12 aorta sections were used at different level for each animal. This number was a function of the structure sizes, according to Sach's formula, showing the number of fields necessary to obtain a statistically significant sample.

[1] = test system: smooth muscle cells of rat aorta; test: In vivo proliferation of smooth muscle cells of rat aorta after mechanical de-endothelialization (anti-BrDU positive nuclei); design: species or system Wistar rat; conditions: for +Nuclei/total nuclei % (anti-bromodeoxyuridine positive): 15 days after de-endothelialization, PLC 120 mg/Kg or Enalapril 1 mg/Kg p.c. die, ± s.e.m., preliminary results
Procedure: as §1, §2
The animals were sacrificed 3 and 15 days after de-endothelialization. Two hours before sacrifice, all the rats received i.v. a Bromodeoxyuridine solution (BrDU) (45 mg/kg body weight) in order to verify cell proliferation. One hour before sacrifice, some randomly selected animals received 1 ml Blue Evans (1% in 0.9% NaCl solution) in order to evaluate the degree of aorta disruption.
At sacrifice, the animals were anaesthetised with i.p. Nembutal and perfused, after washing with isotonic saline containing 3% Dextran 70, with buffered formalin for 20 minutes. Aortae were isolated, slightly washed in saline and dissected longitudinally. Carotid, heart and small intestine were also excised. All the organs were post-fixed in the same fixative for 24 hours at room temperature.
In order to put in evidence proliferating cells in damaged arteries, serial sections in paraffin of aortae were deparaffined, rehydrated, immersed in a 3% H2O2 solution for 20 minutes and incubated with trypsine (0.05 M in Tris-HCl, pH 7.6) at 37° C. After that, sections were treated with 2N HCl at 37° C. for 30 minutes, washed with 0.1 M sodium tetraborate for 10 minutes, incubated with normal horse serum (Vector) and subsequently with and-BrDU monoclonal antibody (Ylem) for 1 hour. The preparates were then reacted with biotilinated anti-mouse IgG (Vector) and the Streptoavidine-ABC-POD complex (Ylem).
The reaction was evidenced by using diaminobenzidine (DAB) as final chromogen. The count of positive nuclei for BrDU was made on the total number of nuclei. Such count was blind-made by two researchers separately. The difference between the two counts was always lower than 0.5%.
All data were analysed with the T Student's test. The differences between the groups were considered to be significant for P<0.05.

[2] = test system: K562, chronic myeloid leukemia cells; test: Inhibition of proliferation of neoplastic cells (Trypan Blue count), K562; type: cell-based, human
Procedure: (§3) Human derived neoplastic cell, obtained from Istituto Zooprofilattico of Brescia, were cultivated. The cells used for the experiment were: U266, multiple myleopma, HeLa, uterine cervix tumor, K562, chronic myeloid leukemia cells. HeLa and K562 were cultivated in RPMI+10% FCS, while those of U266 line were cultivated in RPMI+15% FCS, both media containing Penicilline/Streptomycine (50 U/mL and 50 μg/mL). Cells were plated in 6-wells plates (Falcon). Analysis were performed in cells having 50% confluence.
(§4) Each cell line was treated with PCL according to the folowing schemes:
(§5) a) 1 mM PLC for 24 hours (FIGS. 1-3); 1 mM PLC for 48 hours (FIGS. 1-3);
[…] 4-6).
(§6) At the end of each treatment, cells were counted in Burker chamber in the presence of Trypan Blue 0.5%, diluted 1:2. Count was made for each experimental group on samples coming from three wells.

[3] = test system: SMC isolated from normotensive rats (WKY); test: DNA synthesis by tritiated thymidine incorporation, WKY SMC; type: cell-based, rat; conditions: culture day 6
Procedure: (§7) In vitro experiments were carried out to evaluate the effect of propionyl L-carnitine (PLC) on smooth muscular cells (SMC) isolated from aortae of spontaneously hypertensive rats (SHR) and, as control, on SMC isolated from normotensive rats (WKY).
(§8) These in vitro studies evidenced that PLC, when administered during culture exponential growth phase, reduces cell growth, evaluated as cell number/ml, as well as DNA synthesis, evaluated through incorporation of trititated thymidine (Tab. 4 and 5).

[4] = test system: SMC isolated from normotensive rats (WKY); test: Apoptotic cell count after Hoechst 33258 staining, WKY SMC; type: cell-based, rat
Procedure: as §7
(§9) As a further characterisation of smooth muscular cells in the presence of PLC, the percentage of apoptotic cells was measured both in basal conditions and in oxidative stress conditions. Apoptosis evaluation was carried out by counting the number of apoptotic cells present on a total of 1000 cells, after specific DNA staining with Hoechst 33258.
In WKY cultures, apoptosis percentage is negligible (tab. 6)

[5] = test system: SMC isolated from normotensive rats (WKY); test: Cell growth (cell number/ml) of cultured aortic SMC from WKY; type: cell-based, rat
Procedure: as §7, §8

U266, multiple myleopma = test: Inhibition of proliferation of neoplastic cells (Trypan Blue count), U266; type: cell-based, human
Procedure: as §3, §4, §5
[…] 4-6).
as §6

[6] = test system: HeLa, uterine cervix tumor; test: Inhibition of proliferation of neoplastic cells (Trypan Blue count), HeLa; type: cell-based, human; design: inhibition of proliferation after removal of PLC: dose or concentration left out as unconfirmed
Procedure: as §3, §4, §5
[…] 4-6).
as §6

[7] = test system: smooth muscular cells (SMC) isolated from aortae of spontaneously hypertensive rats (SHR); test: DNA synthesis by tritiated thymidine incorporation, SHR SMC; type: cell-based, rat; conditions: culture day 6
Procedure: as §7, §8

[8] = test system: smooth muscular cells (SMC) isolated from aortae of spontaneously hypertensive rats (SHR); test: Cell growth (cell number/ml) of cultured aortic SMC from SHR; type: cell-based, rat
Procedure: as §7, §8

[9] = test system: smooth muscular cells (SMC) isolated from aortae of spontaneously hypertensive rats (SHR); test: Apoptotic cell count after Hoechst 33258 staining, SHR SMC; type: cell-based, rat
Procedure: as §7, §9

With `CCOC(=O)[C@H](CCc1ccccc1)N[C@@H](C)C(=O)N1CCC[C@H]1C(=O)O` [Enalapril] the “Reduction (% to CTR) of intima relative volume” value (rat aorta intima) was 26.14%, the “Intima volume/wall (percentage ratio between intima volume and aorta wall volume)” value (rat aorta intima) was 21.96 ± 1.20 ^(e) % and the “+Nuclei/total nuclei % (anti-bromodeoxyuridine positive)” value (from here on “+Nuclei/total nuclei %”) ([1]; intima tunica) was “No significant differences”. The “+Nuclei/total nuclei %” value ([1]; intima tunica, listed as enalapril) was 2.43 ± 0.39 (c) %, the “+Nuclei/total nuclei %” value ([1]; tunica media) was “No significant differences” and the “+Nuclei/total nuclei %” value ([1]; tunica media, listed as enalapril) was 0.27 ± 0.09%.
For `CCC(=O)O[C@H](CC(=O)[O-])C[N+](C)(C)C` [PLC, propionyl L-carnitine], the “inhibition of proliferation with respect to the control” value (“inhibition … to the control” below) ([2]; K562, 1 mM PLC for 24 hours) was 37%, the “inhibition … to the control” value ([2]; K562, 1 mM PLC for 48 hours) was 39% and the “inhibition of proliferation after removal of PLC” value (“inhibition … of PLC” below) ([2]; K562, 24 hours with 1 mM PLC, then fresh medium without the substance) was 21%. The tritiated thymidine incorporation [3] was 2.56E−05 μCi/μgDNA, the “Reduction (% to CTR) of intima relative volume” value (rat aorta intima) was 31.11% and the “Intima volume/wall (percentage ratio between intima volume and aorta wall volume)” value (rat aorta intima) was 20.48 ± 2.73 ^(d) %. For the same compound, the apoptotic cell percentage ([4]; basal conditions) was 0%, the apoptotic cell percentage ([4]; oxidative stress) was 2% and the cell number/ml ([5]; culture day 2) was 3*10^4 ± 2 /ml. The cell number/ml ([5]; culture day 3) was 4*10^4 ± 2 /ml, the cell number/ml ([5]; culture day 4) was 6*10^4 ± 2 /ml and the cell number/ml ([5]; culture day 6) was 8*10^4 ± 3 /ml. The “inhibition … to the control” value (U266, multiple myleopma; U266, 1 mM PLC for 24 hours) was 46%, the “inhibition … to the control” value (U266, multiple myleopma; U266, 1 mM PLC for 48 hours) was 26% and the “inhibition … of PLC” value (U266, multiple myleopma; U266, 24 hours with 1 mM PLC, then fresh medium without the substance) was 26%. For the same compound, the “inhibition … to the control” value ([6]; 1 mM PLC for 24 hours) was 25%, the “inhibition … to the control” value ([6]; 1 mM PLC for 48 hours) was 17% and the “inhibition … of PLC” value ([6]; 24 hours PLC, then fresh medium without the substance) was 20%. For the same compound, the “Reduction % of BrDU-positive nuclei against control” value ([1]; tunica media, 3 days after de-endothelialization, PLC 120 mg/Kg p.c. die) was 59.3%, the “positive nuclei/total nuclei % (anti-bromodeoxyuridine positive)” value ([1]; tunica media, 3 days after de-endothelialization, PLC 120 mg/Kg p.c. die, ± s.e.m) was 2.59 ± 0.56% and the tritiated thymidine incorporation [7] was 1.81E−05 μCi/μgDNA. The cell number/ml ([8]; culture day 2) was 7*10^4 ± 4 /ml, the cell number/ml ([8]; culture day 3) was 4*10^4 ± 2 /ml and the cell number/ml ([8]; culture day 4) was 7*10^4 ± 4 /ml. The cell number/ml ([8]; culture day 6) was 20*10^4 ± 5 /ml, the apoptotic cell percentage ([9]; basal conditions) was 2% and the apoptotic cell percentage ([9]; oxidative stress) was 10%.
